Laboratory results published in BindingDB's records for doi:10.1021/jm980314l (Tanabe Seiyaku, 1999).
Where a name gives a salt, the structure may show the parent alone.

Target: cGMP-specific 3',5'-cyclic phosphodiesterase PDE5 (Cavia porcellus)
Test: Inhibition of Phosphodiesterase 5 of guinea pig lung

`COc1cc2cc(CO)c(CO)c(-c3ccnc(-n4ccccc4=O)c3)c2cc1OC` [4'-(2,3-Bis-hydroxymethyl-6,7-dimethoxy-naphthalen-1-yl)-[1,2']bipyridinyl-2-one] was tested. Which IC50 did it give?
Its IC50 is 40 µM.

`COc1cc2cc(CO)c(CO)c(-c3ccnc(-n4nc(-c5ccccn5)c5ccccc5c4=O)c3)c2cc1OC` [2-[4-(2,3-Bis-hydroxymethyl-6,7-dimethoxy-naphthalen-1-yl)-pyridin-2-yl]-4-pyridin-2-yl-2H-phthalazin-1-one; hydrochloride] was tested. Which IC50 did it give?
The IC50 was 9 µM.

How did the IC50 turn out when `CCOc1cc2cc(CO)c(CO)c(-c3ccnc(-n4nc(-c5cccnc5)c5ccccc5c4=O)c3)c2cc1OC` [2-[4-(6-Ethoxy-2,3-bis-hydroxymethyl-7-methoxy-naphthalen-1-yl)-pyridin-2-yl]-4-pyridin-3-yl-2H-phthalazin-1-one; hydrochloride] was run?
Its IC50 is 1 µM.

With `CCOc1cc2cc(CO)c(CO)c(-c3ccnc(-n4nc(-c5cccnc5)c5ccccc5c4=O)c3)c2cc1OCC` [2-[4-(6,7-Diethoxy-2,3-bis-hydroxymethyl-naphthalen-1-yl)-pyridin-2-yl]-4-pyridin-3-yl-2H-phthalazin-1-one; hydrochloride] as the molecule, how does the IC50 read?
Its IC50 is 0.2 µM.

Which IC50 does the source give for `COc1cc2cc(CO)c(CO)c(-c3ccnc(-n4ccc(=O)c5ccccc54)c3)c2cc1OC` [1-[4-(2,3-Bis-hydroxymethyl-6,7-dimethoxy-naphthalen-1-yl)-pyridin-2-yl]-1H-quinolin-4-one] here?
The IC50 was 20 µM.

For `COc1cc2cc(CO)c(CO)c(-c3ccnc(-n4nc(-c5cccnc5)c5ccccc5c4=O)c3)c2cc1OC` [2-[4-(2,3-Bis-hydroxymethyl-6,7-dimethoxy-naphthalen-1-yl)-pyridin-2-yl]-4-pyridin-3-yl-2H-phthalazin-1-one; hydrochloride], which IC50 is on record?
The IC50 was 4 µM.

For `COc1cc2cc(CO)c(CO)c(-c3ccc(-n4nc(-c5cccnc5)c5ccccc5c4=O)nc3)c2cc1OC` [2-[5-(2,3-Bis-hydroxymethyl-6,7-dimethoxy-naphthalen-1-yl)-pyridin-2-yl]-4-pyridin-3-yl-2H-phthalazin-1-one; hydrochloride], which IC50 is on record?
The IC50 was 40 µM.

With `O=c1c2ccccc2c(-c2cccnc2)nn1-c1cc(-c2c(CO)c(CO)cc3ccccc23)ccn1` [2-[4-(2,3-Bis-hydroxymethyl-naphthalen-1-yl)-pyridin-2-yl]-4-pyridin-3-yl-2H-phthalazin-1-one; hydrochloride] as the molecule, how does the IC50 read?
Its IC50 is 10 µM.
